Laboratory results taken from patent US20160153052A1, “MARKER TO PREDICT AND MONITOR RESPONSE TO AURORA KINASE B INHIBITOR THERAPY” (AbbVie Inc., priority 2014, published 2016).

Tests used:
OCI-AML2 cells = experiment: Drug sensitivity of OCI-AML2 cells after p16 shRNA knockdown; format: cell-based; details: p16 shRNA versus control shRNA, mimics CDKN2A deletion (FIG. 7)
Protocol: OCI AML2 cells were infected with control or three p16 shRNA from Sigma (MO). Infected cells were selected with 1 μM puromycin. After selection, cells were used in drug treatment experiments. All cells were maintained at 37° C. in 5% CO2.
One gene product of the CDKN2A locus is p16. Therefore shRNA was used to decrease p16 expression to mimic a situation of CDKN2A deletion. […] Given ABT-348 is a dual inhibitor of VEGF and Aurora kinase B inhibitors, ABT-869, which inhibits VEGF but not Aurora kinase B inhibitors was included to confirm the effect was specific to Aurora kinase B inhibitors inhibition.

[1] = system: cycling cells in blood of patients; experiment: Flow cytometry of patient blood, pharmacodynamic activity (≧4N cells); format: in vivo, human; details: patients treated with ABT-348; associated with percentage of cycling cells at baseline (FIG. 3)
Protocol: Blood of patients was added to lyse fix buffer (BD Biosciences). After lysis of red blood cells, the sample was washed, and permeabilized using Phosflow Perm/wash buffer (BD Biosciences). The sample was incubated for 15 minutes with DAPI (75 ng/mL) before analyzing on a flow cytometer.

hematologic malignancies = experiment: Phase 1 clinical trial of ABT-348 in subjects with hematologic malignancies, CDKN2A status of objective responders; format: in vivo, human; details: three patients assessed had deletion of CDKN2A (FIG. 2)
Excerpt: Three patients assessed had deletion of CDKN2A.

[2] = system: panel of cell lines with and without CDKN2A deletion; experiment: Sensitivity to Aurora kinase inhibitors in a panel of cell lines with and without CDKN2A deletion; format: cell-based; details: cell line panel (FIG. 4 bottom left, FIG. 6)
Protocol: AML cell lines were obtained from the American Type Culture Collection (ATCC; Manassas, Va.) and propagated according to ATCC recommendations.
Based on observation, it was hypothesized that patient samples with a high proportion of cells in G2/M (ie. cycling) would be sensitive to ABT-348. Therefore, a database search was performed to identify genotypes likely to overexpress Aurora kinase B given its expression is increased in M phase of cell cycle (top left). […] Data from Cancer Cell Line Encyclopedia (CCLE) supported this hypothesis (top right). Sensitivity to Aurora kinase inhibitors including ABT-348 was assessed in a panel of cell lines with and without this deletion (bottom left). […] CDKN2A status was then assessed by in situ hybridization in patient samples from ABT-348 trials. An example from one patient is shown (bottom right).

Excerpt for solid tumors: The Y axis list best % tumor change from baseline and the X axis are % tumor cells assessed with a deletion in CDKN2A. The hashed line indicates a putative cutoff separating patients with deletion from those without. […] Threshold to define deletion is <1.2 copies.

| SMILES | sensitivity of OCI-AML2 cells after p16 knockdown (silencing p16 sensitizes) (OCI-AML2 cells) | discontinuation due to toxicity (solid tumors; human, in vivo) | tumor response in patients without a CDKN2A deletion (solid tumors; solid tumors, patients without deletion (FIG. 1)) | clinical response in patients with a deletion of CDKN2A (solid tumors; solid tumors, three patients showed a deletion of CDKN2A, best % tumor change from baseline (FIG. 1)) | pharmacodynamics activity [1] | objective response in patients with deletion of CDKN2A (hematologic malignancies) | sensitivity of cell lines with CDKN2A deletion versus without [2] |
| --- | --- | --- | --- | --- | --- | --- | --- |
| Nc1ncc(-c2cnn(CCO)c2)c2scc(-c3ccc(NC(=O)Nc4cccc(F)c4)cc3)c12 [ABT-348, 1-(4-(4-amino-7-(1-(2-hydroxyethyl)-1H-pyrazol-4-yl)thieno[3,2-c]pyridin-3-yl)phenyl)-3-(3-fluorophenyl)urea] | more sensitive | the third discontinued due to toxicity | No patient without a deletion demonstrated a tumor response | Two of these patients had a clinical response | increase in the number of ≧4N cells | One patient obtained a complete response, and the others had a partial response | more sensitive |
| Cc1ccc(F)c(NC(=O)Nc2ccc(-c3cccc4[nH]nc(N)c34)cc2)c1 [ABT-869] | not | – | – | – | – | – | – |
| CCN(CCCOc1ccc2c(Nc3cc(CC(=O)Nc4cccc(F)c4)n[nH]3)ncnc2c1)CCOP(=O)(O)O [AZD-1152, 2-[[3-({4-[(5-{2-[(3-Fluorophenyl)amino]-2-oxoethyl}-1H-pyrazol-3-yl)amino]-quinazolin-7-yl}oxy)propylliethyl)amino]ethyl dihydrogen phosphate] | more sensitive | – | – | – | – | – | – |
